Data taken from US20070249555A1, “Use of Atp Analogues for Treatment of Cardiovascular Diseases” (INSTITUT NATIONAL DE LA SANTE ET DE LA RECHERCHE MEDICALE …, priority 2004, published 2007).

Columns and labels:
human P2Y13 receptor = target: T1, human P2Y13 receptor (Homo sapiens, UniProt Q9BPV8); assay: TG-HDL2 internalization by HepG2 cells after P2Y13 receptor silencing by siRNA; type: cell-based; conditions: HepG2, P2Y13 siRNA 100 nM, 48 h; apoA-I 10 μg/ml, ADP 100 nM, AR-C69931MX 100 nM
T1 construct: host or cells: HepG2
T1 sequence (Q9BPV8 1-354): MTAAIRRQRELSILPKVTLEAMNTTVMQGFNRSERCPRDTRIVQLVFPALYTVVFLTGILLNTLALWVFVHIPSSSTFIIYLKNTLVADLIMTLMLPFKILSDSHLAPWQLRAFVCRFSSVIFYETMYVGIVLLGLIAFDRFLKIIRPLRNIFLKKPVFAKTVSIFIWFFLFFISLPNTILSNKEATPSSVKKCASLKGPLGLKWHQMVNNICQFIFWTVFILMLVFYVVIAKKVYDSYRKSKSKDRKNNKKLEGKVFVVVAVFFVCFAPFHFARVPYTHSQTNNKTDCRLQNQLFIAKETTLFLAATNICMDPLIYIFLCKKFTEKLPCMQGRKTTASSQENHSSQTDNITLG
Experimental: Experiment was performed as in FIG. 2A with non-specific control siRNA (a, b, c) or with siRNA directed to human P2Y13 receptor (d, e, f, g) (n>7); (*) p<0.05 (unpaired t-test).
Internalization assays were performed as described in Guendouzi et al., (Biochemistry, 1998, 37: 14974-80) on HepG2 cells, obtained from the American Type Culture Collection ([…]). Cells were incubated for 10 minutes at 37° C. with 75 μg/ml of either ^125I-TG-HDL2, ^125I-HDL3 or ^125I-LDL. After washing and dissociation at 4° C. in phosphate buffered saline (PBS), cell radioactivity was determined using a Wallac 1261 multigamma apparatus.
The silencing of the different P2Y receptors were carried-out using the siRNA technique. The siRNA sequenced targeting human P2Y13 receptor (Gene Bank GB/EMBL/DDBJ accession number AF295368) was from position 406 or 359 relative to the start codon. The siRNA duplex (21-nt-RNAs) in deprotected and desalted form, the siRNA targeting human P2Y1 receptor (a mix of 4 siRNAs, M-005689), and the non-specific control siRNA (D-001206-01) were purchased from Dharmacon Inc. Subconfluent HepG2 cells were transiently transfected with siRNAs (final concentration, 100 nM) using Oligofectamine™ according to the manufacturer's protocole (Invitrogen). Cells were usually assayed 48 hours after transfection. Specific silencing effect was confirmed by at least three independent experiments.
Results are expressed as a percentage of internalization with respect to the control value (set at 0). Control corresponded to a basal value of internalization, amounting to 400 ng, 300 ng, 200 ng of TG-HDL2, HDL3 and LDL per mg of cells protein respectively for 10 minutes. Data as a mean ±SEM of at least 7, 5, 6 independent experiments, for TG-HDL2, HDL3 and LDL respectively.

HepG2 cells = assay: TG-HDL2 internalization by HepG2 cells; type: cell-based, human; conditions: 10 min at 37° C.
Experimental: Cells were incubated for 10 minutes at 37° C. with 75 μg/ml^125I-TG-HDL2 without (control) or with apolipoprotein A-I 10 μg/ml (a), ADP 100 nM (b), AR-C69931MX 100 nM (c), ADP 100 nM+AR-C69931MX 100 nM (d), ADP 100 nM+[…] 100 μM (e), ADP 100 nM+MRS2179 10 μM (f). […] Internalization assays were performed as described in Guendouzi et al., (Biochemistry, 1998, 37: 14974-80) on HepG2 cells, obtained from the American Type Culture Collection ([…]). Cells were incubated for 10 minutes at 37° C. with 75 μg/ml of either ^125I-TG-HDL2, ^125I-HDL3 or ^125I-LDL. After washing and dissociation at 4° C. in phosphate buffered saline (PBS), cell radioactivity was determined using a Wallac 1261 multigamma apparatus. Prior experiments, cells were plated in polylysine-coated 24-multiwell plates (Falcon) at 4×10^4 cells per well. Cells were grown in Dulbecco's modified Eagles medium supplemented with 10% fetal calf serum, 100 units/ml penicillin, and 100 μg/ml streptomycin at 37° C. in a 5% CO2 and 95% air incubator. Medium was changed every 2 or 3 days, and the cells were subcultured every 7-8 days. Results are expressed as a percentage of internalization with respect to the control value (set at 0). Control corresponded to a basal value of internalization, amounting to 400 ng, 300 ng, 200 ng of TG-HDL2, HDL3 and LDL per mg of cells protein respectively for 10 minutes. Data as a mean ±SEM of at least 7, 5, 6 independent experiments, for TG-HDL2, HDL3 and LDL respectively.

SMILES | effect of P2Y13 receptor silencing on TG-HDL2 endocytosis after stimulation (human P2Y13 receptor) | internalization of 125I-TG-HDL2 by HepG2 cells, increase above control cells (HepG2 cells; 75 μg/ml 125I-TG-HDL2, apoA-I 10 μg/ml, ADP 100 nM, AR-C69931MX 100 nM alone) | ADP-dependent TG-HDL2 internalization, increase above control cells (HepG2 cells; ADP 100 nM + AR-C69931MX 100 nM)
Nc1ncnc2c1ncn2[C@@H]1O[C@H](COP(=O)(O)OP(=O)(O)O)[C@@H](O)[C@H]1O [ADP, adenosine diphosphate, reference compound] | dramatic inhibition | 20% | 
CSCCNc1nc(SCCC(F)(F)F)nc2c1ncn2[C@@H]1O[C@H](COP(=O)(O)OP(=O)(O)C(Cl)(Cl)P(=O)(O)O)[C@@H](O)[C@H]1O [AR-C69931MX, N-[2-(methylthio)ethyl]-2-[(3,3,3-trifluoropropyl)thio]-5′-adenylic acid, monoanhydride with dichloromethylenebisphosphonic acid] | dramatic inhibition |  | over 30%
